Where two headings read alike, the source gives them in different places.
Key:
W10 progenitor cell line = assay: Immunofluorescent staining of bound phage; assay type: binding, human; conditions: peptide display phage, 2×10^10 pfu/well, live cells, 2 h at 37° C.
Description: The binding specificity of selected phages was determined by immunofluorescent staining of bound phage to the surface of W10 progenitor cell line. Cells were plated at 100,000 cells/well in 24 well plates and incubated overnight. Phages at 2×10^10 pfu/well were diluted in 0.5 ml of W10 growth media supplemented with 2% BSA and incubated with live cells for 2 h at 37° C. Cells were washed as for the selection experiments and fixed by 4% paraformaldehyde for 20 min at RT. Cells were washed twice with PBS and permeabilized by ice-cold MeOH for 15 min on ice. After another two washes, cells were blocked with 5% goat serum in 2% BSA in PBS for 1 h at RT or overnight at 4° C. Cells were incubated with 1:700 dilution of rabbit anti-Fd bacteriophage antibody (Sigma, B7786) in 2% BSA in PBS for 1 h at RT. Cells were washed with 2 ml of 1% BSA in PBS three times, and incubated with 1:1000 dilution of goat anti-rabbit AlexaFluor568 conjugated antibody (Invitrogen, A11011) in 1% BSA in PBS for 1 h at RT. Cells were counterstained with DAPI at 0.1 μg/ml after final washes and photographed by an Olympus IX71 fluorescence microscope. Images were taken and processed using MetaMorph (version 7.5.6.0, Molecular Devices), ImageJ (version 1.45b, National Institute of Health) or Photoshop (version 9.0.2, Adobe) software.

7PEND24 cell line = assay: Qdot peptide complex labeling, flow cytometry; assay type: cell-based, human; conditions: for cell labeling by peptide Qdot complexes: 7PEND24, in words
Description: (§1) FIG. 6. Selectivity of Qdot peptide complexes. Embryonic progenitor cell lines were labeled with Qdot complexes in their corresponding growth media and analyzed by flow cytometry as in (FIG. 5C). Percentage of labeled cells was calculated by setting up gates (allowing up to 1%) using the progenitor cell line labeled with untargeted Qdots and unlabeled cells. 10,000 events were recorded for each sample. Values are from triplicate experiments and shown as mean+/−standard error.
(§2) For flow cytometric analysis of labeled cells, cells were removed from the plates using TrypLE for 5 min at 37° C. Cells were resuspended in PBS, passed through strain top tubes and analyzed using flow cytometer. Control samples included unlabeled cells and cells labeled with untargeted Qdots. For each sample, 10,000 events were quantified. The LSRFortessa flow cytometer (BD Biosciences) was used with a violet laser excitation at 405 nm with a 605/23 bandpass filter to detect Qdot605 and the yellow laser excitation at 561 nm with a 670/30 bandpass filter to detect Qdot655. Cell autofluorescence was detected with the blue laser excited at 488 nm and a 510/25 bandpass filter.
(§3) 2 μM of Qdot Streptavidin conjugate (Qdot605 ITK SA, Invitrogen, Q10001MP) were diluted in 100 μl of binding buffer (supplied with Qdot605 ITK SA) and incubated with 100-fold excess of biotinylated peptide on ice for 1 h. Uncoupled biotinylated peptide was removed from the mixture by incubating it with streptavidin magnetic beads equilibrated in PBS on ice for 30 min; placing the mixture on a magnetic stand to separate the beads and removed the complexes in solution. SA-beads were washed with PBS and combined with the recovered complexes. For control reactions, Qdots were incubated with binding buffer and treated in similar way as the peptide complexes. The concentration of Qdot-peptide complexes was estimated based on the final volume recovered. To label cells with the Qdot-complexes, 100,000 cells were plated on gelatin-coated wells of 24 well plates were incubated for 6 hours; 5 nM of Qdot-peptides in growth media was added to the cells and incubated for 16 h at 37° C. Cells were imaged after washes with PBS to remove the unbound Qdot-complexes.

E15 cells = assay: Qdot peptide complex labeling, flow cytometry; assay type: cell-based, human
Description: as §1, §2, §3

SM30 cell line = assay: Qdot peptide complex labeling, flow cytometry; assay type: cell-based, human
Description: as §1, §2, §3

MW1 cell line = assay: Qdot peptide complex labeling, flow cytometry; assay type: cell-based, human
Description: as §1, §2, §3

4D20.8 cells = assay: Qdot peptide complex labeling, flow cytometry; assay type: cell-based, human
Description: as §1, §2, §3

[1] = system: hPS cells grown under mesoderm differentiation conditions; assay: Peptide targeted Qdot labeling of differentiating hPS cells; assay type: cell-based, human; conditions: 5 nM, 16 h at 37° C.
Description: (§4) FIG. 7A and FIG. 7B. Labeling of a differentiating pluripotent stem cells using peptide targeted Qdots. FIG. 7A: Selective peptide targeting of human embryonic stem cells (H9) that were differentiated into the three germ layers (see methods for protocols) for 6-8 days compared to undifferentiated control. Differentiated cells were incubated for 16 h at 37° C. with 5 nM of Qdot complexes, washed and imaged using a fluorescence microscope. Representative bright-field and fluorescent signal of W10 peptide Qdot complexes (red) are shown. FIG. 7B: Cells were stained with the following differentiation markers to verify the germ layer commitment: nestin for ectoderm, α-actinin for mesoderm, SOX17 for endoderm conditions and OCT3/4 for undifferentiated cells.
as §3
(§5) For ectoderm differentiation conditions, embryoid bodies (EBs) were formed from colonies by manual techniques and grown in complete NPC media (DMEM-F12:Neurobasal media 1:1+50 μl/ml BIT9500 Serum substitute (Stemgent)+1% GlutaMax+1% penicillin-streptomycin+1 μl/ml B27 supplement (Invitrogen)+5 mM nicotinamide+5 μg/ml insulin+20 ng/ml EGF+20 ng/ml bFGF) in low attachment plates for 6 days; EBs were then plated on fibronectin-coated wells and grown for another 3 days. For mesoderm differentiation conditions, EBs were cultured as above except that media was DMEM-F12 with GlutaMax+20% FBS+1% NEAA+1% penicillin-streptomycin, and plated on 0.1% gelatin-coated wells. For endodermal differentiation conditions, undifferentiated H9 cells were transferred from colonies growing with MEFs to Geltrex™ (Life Technologies, Grand Island, N.Y.)-coated wells and grown for 2 days with MEF-conditioned media+4 ng/ml bFGF. From day 2, cells were grown for another 5 days in RPMI+0.5% FBS+100 ng/ml Activin A.

[2] = system: hPS cells differentiated using culture conditions for definitive endoderm; assay: as above; assay type: cell-based, human; conditions: definitive endoderm conditions (high activin A, low serum); 5 nM, 16 h at 37° C.
Description: as §4, §3, §5

somatic cells = conditions: cited from earlier work
W10 cells [3] = assay: Cell labeling with peptide targeted Qdot complexes (microscopy, flow cytometry); assay type: cell-based, human
Description: as §2
2 μM of Qdot Streptavidin conjugate (Qdot605 ITK SA, Invitrogen, Q10001MP) were diluted in 100 μl of binding buffer (supplied with Qdot605 ITK SA) and incubated with 100-fold excess of biotinylated peptide on ice for 1 h. Uncoupled biotinylated peptide was removed from the mixture by incubating it with streptavidin magnetic beads equilibrated in PBS on ice for 30 min; placing the mixture on a magnetic stand to separate the beads and removed the complexes in solution. SA-beads were washed with PBS and combined with the recovered complexes. For control reactions, Qdots were incubated with binding buffer and treated in similar way as the peptide complexes. […]

[4] = system: 10 embryonic progenitor cell lines; assay: Selectivity of Qdot peptide complexes, panel of progenitor lines; assay type: cell-based, human; conditions: out of the 10 lines; peptide targeted Qdots, flow cytometry
Description: as §1, §2
2 μM of Qdot Streptavidin conjugate (Qdot605 ITK SA, Invitrogen, Q10001MP) were diluted in 100 μl of binding buffer (supplied with Qdot605 ITK SA) and incubated with 100-fold excess of biotinylated peptide on ice for 1 h. […]

W10 cells [5] = assay: Peptide competition for phage binding; design: species or system human; conditions: for specificity of binding (lack of competition with scrambled peptides): free peptide against scrambled peptide; for competition of the 2 peptides with each other for W10 cell binding: data not shown
Description: Cells were plated at 100,000 cells/well in 24 well plates and incubated overnight. The corresponding synthetic peptide for each peptide phage or control peptides (unrelated or scrambled sequence peptide) were pre-incubated with cells at 5 nM or 5 μM in W10 growth media supplemented with 2% BSA for 30 min at 4° C. Peptide phages at 2×10^10 pfu/well were added to the peptide dilution and incubated with live cells for 1 h at 4° C. Peptide phage bound to cells was detected by immunostaining and fluorescence microscopy using anti-phage antibody on fixed and permeabilized cells or quantified by titration of phages recovered from cell lysates. The percentage of recovered phage for the competition assay was normalized by the recovered phage in the no-peptide control. Duplicate independent experiments were performed for competition experiments.

Molecule | binding of peptide phage detected by immunocytochemical staining (W10 progenitor cell line) | cell labeling by peptide Qdot complexes (E15 cells) | cell labeling by peptide Qdot complexes (4D20.8 cells) | cell labeling by Qdot complexes [1] | cell labeling by Qdot complexes [2] | specificity of binding (lack of competition with scrambled peptides) (W10 cells [5]) | cell labeling by peptide Qdot complexes (7PEND24 cell line) | competition of the 2 peptides with each other for W10 cell binding (W10 cells [5]) | further results
YEFDNLLNRTLW (FROM PHAGE DISPLAY LIBRARY) [W10 R2 1, W10 selected 12-mer; tested as M13 display phage, C-terminal biotinylated free peptide and streptavidin Qdot complex] | strongest binding | no complex uptake | no complex uptake | no labeling | highly restricted to a small percentage of cells |  |  |  | cell labeling (7PEND24 cell line; 7PEND24): more than 15%; cell labeling (SM30 cell line): more than 15%; cell labeling (MW1 cell line): more than 15%
CCCC(CCC)C(=O)O [valproic acid] |  |  |  |  |  |  |  |  | increase of reprogramming efficiency (somatic cells; compared to Yamanaka's traditional transcription factor method): 100 fold
DWLWSFAPNVDT (FROM PHAGE DISPLAY LIBRARY) [W10 R3 18, W10 selected 12-mer; tested as M13 display phage, C-terminal biotinylated free peptide and streptavidin Qdot complex] | strongest binding |  |  | a few small patches of labeled cells | a high percentage of cells were labeled | sequence specific |  |  | percentage of cells labeled with peptide-Qdot complexes (W10 cells [3]; 5 nM Qdot complexes, 16 h at 37° C., gated on untargeted Qdots): 90%; fluorescent shift of labeled cells (W10 cells [3]; compared to untargeted Qdots): strong fluorescent shift; number of embryonic progenitor cell lines with a high percentage of cells bound [4]: 7
O=C(NCc1ccccc1)c1csc(Nc2ccncn2)n1 [Thiazovivin] |  |  |  |  |  |  |  |  | increase of reprogramming efficiency (somatic cells; Thiazovivin with the two previous chemicals (SB431412, PD0325901)): 200 fold
GWYWETPLDMFN (FROM PHAGE DISPLAY LIBRARY) [W10 R2 21, W10 selected 12-mer; tested as M13 display phage, C-terminal biotinylated free peptide and streptavidin Qdot complex] | strongest binding | very little labeling | very little labeling | a few small patches of labeled cells | a high percentage of cells were labeled | sequence specific | high percentage binding | can compete with each other | competition for peptide phage binding (recovered phage, percentage of no-peptide control) (W10 cells [5]; C-terminal biotinylated free peptide at 5 nM or 5 μM, 4° C.): only significant at 5 μM
GWVIDYDYYPMR (FROM PHAGE DISPLAY LIBRARY) [W10 R2 11, W10 selected 12-mer; tested as M13 display phage, C-terminal biotinylated free peptide and streptavidin Qdot complex] | strongest binding | very little labeling | very little labeling | a few small patches of labeled cells | a high percentage of cells were labeled | sequence specific | high percentage binding | can compete with each other | 

From patent US10227561B2, “Methods and compositions for targeting progenitor cell lines” (Mandala Biosciences, LLC, priority 2012, dated 2019)
